We go through 1 compound from PMC3003779 (Chemistry & biology, 2010).

One series concerns other serine hydrolases. Briefly: competitive activity-based protein profiling, ex vivo after i.p. dosing. The format is in vivo, mouse. The settings on record: 1 h.
Another series has as its target T1, FAAH (Mus musculus, UniProt O08914).
T1 sequence (O08914 1-579): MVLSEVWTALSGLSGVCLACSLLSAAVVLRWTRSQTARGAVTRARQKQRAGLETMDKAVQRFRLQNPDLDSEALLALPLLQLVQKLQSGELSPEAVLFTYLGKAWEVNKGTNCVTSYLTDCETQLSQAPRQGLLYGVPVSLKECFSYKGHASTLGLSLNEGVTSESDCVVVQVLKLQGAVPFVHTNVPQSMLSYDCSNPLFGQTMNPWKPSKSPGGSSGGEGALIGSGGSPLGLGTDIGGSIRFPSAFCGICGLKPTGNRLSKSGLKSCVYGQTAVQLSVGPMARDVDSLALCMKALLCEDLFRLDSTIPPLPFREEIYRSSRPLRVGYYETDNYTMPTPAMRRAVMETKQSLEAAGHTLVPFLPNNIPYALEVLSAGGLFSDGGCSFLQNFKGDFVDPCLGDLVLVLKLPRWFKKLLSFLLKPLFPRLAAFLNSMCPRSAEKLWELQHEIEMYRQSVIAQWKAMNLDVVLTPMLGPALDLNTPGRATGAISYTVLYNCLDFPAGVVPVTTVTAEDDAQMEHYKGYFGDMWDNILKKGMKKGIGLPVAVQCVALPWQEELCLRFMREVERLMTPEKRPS
Briefly: in vivo. The format is in vivo.

The test system of series [1] is SHR. Briefly: mean arterial pressure and heart rate in chronically cannulated conscious SHR. The format is in vivo, rat. The following applies: 0.5 mg/kg i.v.
Series [2] has as its system SHR and WKY rats. Briefly: hemodynamic analysis with pressure-volume microcatheter. In kind it is in vivo, rat. The settings on record: 1 mg/kg i.v., 20 min.
The subject of series [3] is SHR and WKY rats. The series is described as follows: non-fasting blood glucose in rats. The following applies: 1 mg/kg i.p.
In a further series the target is T2, CB2 receptors (Rattus norvegicus, UniProt Q9QZN9).
T2 sequence (Q9QZN9 1-360): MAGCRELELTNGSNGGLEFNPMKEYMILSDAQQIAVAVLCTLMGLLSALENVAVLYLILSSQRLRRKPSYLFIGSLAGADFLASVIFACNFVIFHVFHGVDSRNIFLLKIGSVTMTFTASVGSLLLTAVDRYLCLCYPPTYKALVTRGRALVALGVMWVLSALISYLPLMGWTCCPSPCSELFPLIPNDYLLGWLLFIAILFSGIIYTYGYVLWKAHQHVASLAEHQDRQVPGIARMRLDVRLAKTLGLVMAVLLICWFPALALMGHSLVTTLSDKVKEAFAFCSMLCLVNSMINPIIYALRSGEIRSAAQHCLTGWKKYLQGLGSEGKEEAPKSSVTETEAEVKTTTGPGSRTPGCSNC
Briefly: radioligand displacement, [3H]CP,55940, rat spleen membranes. A general note: Displacement assays read how much labelled ligand stays bound in the presence of the test substance.

Series [4] concerns SHR. Briefly: cardiovascular effects under ganglionic blockade. The settings on record: 1 mg/kg, hexamethonium + vasopressin + isoproterenol.

Consider `O=S(=O)(F)CCCCCc1ccc(O)cc1` [AM3506, 5-(4-hydroxyphenyl)pentanesulfonyl fluoride], for which the “activity of other serine hydrolases in brain (ABPP)” value with other serine hydrolases (mouse brain, 0.1 mg/kg i.p.) was “no change”. Moreover, in the series on other serine hydrolases (mouse liver, 1 mg/kg i.p.), the “liver unidentified ~58kD protein activity (ABPP)” value is listed as “partial inhibition”. For the same compound, on FAAH (mouse brain, ex vivo), the “ID50, inhibition of brain FAAH activity” value worked out at 0.10 mg/kg. Besides, the “FAAH inhibitory activity in liver” value on FAAH (mouse liver, doses up to 1 mg/kg) was “devoid of substantial FAAH inhibitory activity”. For the same compound, the “suppression of FAAH activity in brain” value on FAAH (oral, 1 mg/kg, brain) came to 90±0.4%. Further, on FAAH (oral, 1 mg/kg, liver), the “suppression of hepatic FAAH activity” value is 13±2.6%. Besides, the “duration of MAP and HR effects” value with SHR [1] (awake SHR, n = 5) was “up to 60 minutes”. Also, the MAP after treatment in the series on SHR [1] (conscious SHR, from 176 ±4, n=4) is on record as 127±5 mmHg. In the series on SHR [1] (conscious SHR, from 355±6, n=4), this compound had an HR after treatment of 286±22 bpm. Also, in the series with SHR [1] (conscious SHR, n=4), the “duration of MAP and HR effects” value is recorded as “up to an hour”. In the series on SHR and WKY rats [2] (SHR), the “cardiac contractility (ESPVR)” value is recorded as “marked decrease”, the “cardiac output (CO)” value is “decreases”, the dP/dtmax result is listed as “decreases” and the “left ventricular end-systolic pressure (LVESP)” value is “decreases”. The “LVESP, dP/dtmax, TPR and CO” value in the series with SHR and WKY rats [2] (normotensive WKY) is “No changes”. Besides, in the series on SHR and WKY rats [3] (SHR, from 97.8±5.6), the “non-fasting blood glucose after treatment” value came out at 96.8 ± 2.9 mg/dL. For the same compound, the “non-fasting blood glucose after treatment” value in the series with SHR and WKY rats [3] (WKY, from 114.5±5.3) is 108.2 ± 4.5 mg/dL. The Ki at CB2 receptors was found to be 192 nM. For the same compound, in the series with SHR [4], the “reduction of the bradycardia elicited by AM3506 under ganglionic blockade” value came out at 74.0±7.7% and the “reduction of the hypotension elicited by AM3506 under ganglionic blockade” value was determined as 89.6±3.6%.

Usually Ki stands for a measure of affinity in units of concentration, obtained from inhibition or displacement. The low end stands for higher affinity, the high end for lower affinity.
